Here are results for one compound from EP4069192B1 (Solis Herrera, Arturo, priority 2019, dated 2021).

Converted amounts (≈) assume the structure as drawn. A value given as a limit tells only on which side of the number the result lay.

The conditions of data set [1]: intranasal spray, single 3 mg dose, women, before emergence from general anesthesia; cited from earlier work.
For the next data set, the system named is H1N1 virus. The following applies: 0,002 mg/kg each 24 hours; 24 hours after treatment; 15000 treated vs 15000 control chicken, control turned down the production of eggs.
The conditions of data set [2]: in vivo.
Another data set concerns cell proliferation. Put plainly: cells. The note with it: Homo sapiens, read-out: doses that inhibit 50% of cell proliferation.
The subject of data set [3] is human PBLs (leukocytes of peripheral blood). The following applies: 48 hours, MTT.
Experimental: Thereby, cell viability was determined on the basis of the mitochondria-dependent reduction of MTT (3-[4,5-dimethyltiazol 2yl]-2,5-diphenyltetrazolium bromide) to formazan. […] Next cells were treated with 20 µl of MTT. After 3 hours of incubation at 37°C, the formazan blue formed in the cells was dissolved in 100 µl of SDS (sodium dodecylsulfate) for 3 hours in 37°C. The optical density was measured at 570 nm.
After the cytotoxicity tests LC50 (LC50-lethal concentration, 50%-dose required to kill half of the cells after a specified test duration) were estimated for each cell lines and PBLs (leukocytes of peripheral blood). Additionally for PBLs LC10 and LC5 were calculated.
On the basis of the results of MTT assay for human leukocytes the LC50, LC10 and LC5 were evaluated.
Data set [4] deals with HS683 (human neuronal glioma cell line). The following applies: HS-683, 48 hours, MTT.
Another data set concerns A549 cells. The data set can be described thus: cells. The following applies: Homo sapiens, A549, 96 h. As to the method:
(§1) Further, a proliferation test was prepared for the same three cell lines: WI-38, A549 and HS 683. 3x10^4 WI-38 cells and 2x10^4 A549 and HS 683. Cells were seeded into each wells in 96-well culture plates in appropriate culture medium with 10% FBS (fetal bovine serum). […] After 96 hours incubation in 37°C/5%CO2 MTT assay was performed for establishing the cell viability.

The test system of a further data set is HS-683. The data set can be described thus: cells. The following applies: Homo sapiens, Hs 683, 96 h. On the procedure:
as §1

The test system of the next data set is WI-38 cells. The data set can be described thus: cells. The note with it: Homo sapiens, WI-38, 96 h. On the procedure:
as §1

For data set [5] the following is noted: rat, in vivo.
The subject of another data set is IL-6 production. As to the method:
(§2) After 24 hours of incubation in 37°C/5%CO2 samples of leukocytes and supernatants were collected.
(§3) Cytokine levels were determined using ELISA kits (BD Biosciences, USA) for human IFNγ, TNF-α and IL-6 and DuoSet for human IL-3 (R&D Systems, USA) according to the producers' instructions. The optical density was measured at 450 nm using a Multiskan RC spectrophotometric reader (Thermo Labsystems, USA), Cytokine concentrations were expressed in pg/ml.

The next data set concerns IFN-γ production. As to the method:
as §2, §3

The subject of the next data set is TNF-α production. As to the method:
as §2, §3

The subject of data set [6] is A549 (human lung adenocarcinoma epithelial cell line). The note with it: A549, 48 hours, MTT.
The mark [7] stands for this setting: read-out: concentration that inhibits 50% of the proliferation.

For `CN1CCC[C@H]1c1cccnc1`, the “pain scores during the first day post-surgery” value in data set [1] is “significant reduction in pain scores”. Also, the “risks of hypertension of tachycardia” value in [1] is “not increasing the risks”. Further, in the data set on H1N1 virus, the production of eggs entry is “began to lay off eggs”. Further, the healing effect entry in [2] is on record as “increased healing effect”. Also, the IC50 in the data set with cell proliferation is above 1000 µg/mL; in the data set with A549 cells (setting [7]), 2000 µg/mL (≈ 12.3 mM); with HS-683 (setting [7]) it was 2900 µg/mL (≈ 17.9 mM); in the data set with WI-38 cells (setting [7]), 1000 µg/mL (≈ 6.16 mM). In addition, in [3], the LC5 is 0,5 mg/ml. The LC10 in data set [3] was found to be 1000 µg/mL (≈ 6.16 mM). The values for the LC50 in data set [4] and in data set [6] were 3,5 mg/ml and 4,5 mg/ml, respectively. Further, the IC99 stood at 5500 µg/mL with A549 cells (read-out: concentration that inhibits 99% of the proliferation), 5500 µg/mL in the data set on HS-683 (read-out: concentration at which 99% of proliferation are inhibited) and 4500 µg/mL with WI-38 cells (read-out: concentration that inhibits a proliferation of 99%). The mortality in data set [5] is 0,625 of 8 rats. For the same compound, in the data set on IL-6 production, the “effect on IL-6 production” value is reported as “no effect”. Besides, the “effect on IFN-γ production” value in the data set with IFN-γ production was “strongly decreases the level of interferon in a dose-dependent manner”. The “effect on TNF-α production” value with TNF-α production is listed as “increases the level of cytokines in a dose-dependent manner”.
